Two molecules from PMC9327644, “Optimized peptide extraction method for analysis of antimicrobial peptide Kn2-7/dKn2-7 stability in human serum by LC–MS” (Future Science OA, 2022) can be followed below.

Structures are written as SMILES. Square brackets hold non-standard residues; d marks the D form. Peptide text beside a SMILES is read from it.

The nature of this data set: Time-course stability in 25% human serum by LC-MS. The data set is classed as in vitro ADME. The settings on record: 25% human serum in RPMI media (165 mM MOPS, pH 7.0), 50 μg/ml peptide, 37°C water bath, precipitation with 1% formic acid in ethanol, LC-MS/MS (MRM), internal standard AMP 1018, mean ± SD, n = 3. On the procedure:
After parameters were optimized to reduce peptide loss during sample processing, the extent of AMP degradation by proteases in human serum was determined via a time-course experiment. Kn2-7 or dKn2-7 (50 μg/ml final concentration) was mixed with RPMI media alone or RPMI containing 25% human serum and incubated at 37°C in a water bath for up to 24 h. At predetermined time points (t = 0, 0.5, 1, 2, 3, 4 and 24 h), a 200 μl aliquot of each sample was collected and mixed with 400 μl of 1% formic acid in ethanol. Samples were incubated on ice for 15 min and centrifuged at 18,000 g for 10 min. Supernatants were transferred to fresh 500 μl tubes and stored at -20°C.
Samples were diluted eight-times with 3% ACN and 0.1% formic acid in water and spiked with internal standard AMP 1018 [15, 16] at 1 μg/ml immediately before LC–MS analysis. A 10 μl aliquot of each sample was analyzed using an Agilent ZORBAX Eclipse XDB 80Å C18 column (2.1 × 50 mm, 5 μm, Agilent, CA, USA) and a Shimadzu LC-20AD system (Shimadzu Corporation, Kyoto, Japan) coupled with a SCIEX API 4000 triple quadrupole mass spectrometer (AB Sciex, MA, USA). […]
MS was conducted in multiple reaction monitoring and positive electrospray ionization mode. […] AMPs Kn2-7/dKn2-7 and 1018 were quantified with the most abundant multiple reaction monitoring transitions m/z 558.7/120.2 and 385.18/239.1, respectively. […]

As for `CC[C@H](C)[C@H](NC(=O)[C@H](CCCNC(=N)N)NC(=O)[C@H](CCCCN)NC(=O)[C@@H](NC(=O)[C@@H](N)Cc1ccccc1)[C@@H](C)CC)C(=O)N[C@@H](C)C(=O)N[C@@H](CCCNC(=N)N)C(=O)N[C@@H](CC(C)C)C(=O)N[C@@H](CC(C)C)C(=O)N[C@@H](CCCNC(=N)N)C(=O)N[C@@H](CCCCN)C(=O)N[C@H](C(=O)N[C@@H](Cc1ccccc1)C(=O)O)[C@@H](C)CC` [Kn2-7] (H-FIKRIARLLRKIF-OH), the “peptide remaining at 24 h relative to the starting concentration (amount in 0 h sample)” value is 1.0% ± 0.4%.
The same measure for `CC[C@@H](C)[C@@H](NC(=O)[C@H](N)Cc1ccccc1)C(=O)N[C@H](CCCCN)C(=O)N[C@H](CCCNC(=N)N)C(=O)N[C@@H](C(=O)N[C@H](C)C(=O)N[C@H](CCCNC(=N)N)C(=O)N[C@H](CC(C)C)C(=O)N[C@H](CC(C)C)C(=O)N[C@H](CCCNC(=N)N)C(=O)N[C@H](CCCCN)C(=O)N[C@@H](C(=O)N[C@H](Cc1ccccc1)C(=O)O)[C@H](C)CC)[C@H](C)CC` [dKn2-7] (H-[dF][dI][dK][dR][dI][dA][dR][dL][dL][dR][dK][dI][dF]-OH): 78.5% ± 2.7%.
